Laboratory results: patent US8318746B2, “Nitrogen-containing five-membered heterocyclic compound” (Takeda Pharmaceutical Company Limited, priority 2007, dated 2012)

Target: T1, GST-hLGK1 (GST added to the amino terminal of human liver GK) (Homo sapiens, UniProt P35557)
T1 construct: with a BamHI site added to immediately before the initiation codon; made in house; host or cells: Escherichia coli BL21 (Stratagene), plasmid pGEX6P-2/hLGK1
T1 sequence (P35557 1-464 isoform P35557-3): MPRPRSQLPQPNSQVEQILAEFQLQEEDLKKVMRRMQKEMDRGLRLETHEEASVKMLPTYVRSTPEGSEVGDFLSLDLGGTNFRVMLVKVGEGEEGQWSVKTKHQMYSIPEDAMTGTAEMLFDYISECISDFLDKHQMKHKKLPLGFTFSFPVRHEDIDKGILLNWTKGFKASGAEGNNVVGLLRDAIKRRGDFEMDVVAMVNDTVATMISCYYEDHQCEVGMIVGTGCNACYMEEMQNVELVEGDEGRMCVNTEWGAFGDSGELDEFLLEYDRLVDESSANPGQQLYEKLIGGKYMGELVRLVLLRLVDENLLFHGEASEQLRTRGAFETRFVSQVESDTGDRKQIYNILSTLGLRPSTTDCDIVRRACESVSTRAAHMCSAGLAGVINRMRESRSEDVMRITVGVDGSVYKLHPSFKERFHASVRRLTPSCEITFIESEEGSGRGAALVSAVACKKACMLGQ
Assay: Measurement of GK activation value
Type: biochemical
Details: test compound final concentration 10 μmol/L; reaction rate divided by that of control group (50% DMSO without test compound); Mant-ATP substrate, D-glucose, 37° C., 60 min
Method: To each well of a 384-well black plate (Nalge Nunc International K.K.) was added 5 μL of 50% dimethyl sulfoxide solution containing test compound diluted to 100 μmol/L. Then, GST-hLGK1 obtained in Reference Example 2A was diluted with measurement buffer (containing 50 mM HEPES (pH 7.4), 200 mM KCl, 5 mM MgCl2, 2.5 mM DTT and 50 μM 2′-(or-3′)—O—(N-methylanthraniloyl) adenosine 5′-triphosphate (Mant-ATP) (Jena BioScience)) to 6 μg/mL and 35 μL thereof was added to each well.
Each well was stood at 37° C. for 10 min, 25 mM D-glucose solution (10 μL) was added to start the reaction. The final concentration of the test compound was 10 μmol/L.
Each, well after the reaction was stood at 37° C. for 60 min, and the reaction was quenched by adding 25 μL of a quenching solution (containing 200 mM HEPES (pH 7.4), 20 mM MgCl2, 200 mM EDTA, 0.03% Triton-X 100, 0.3% Coating 3 reagent (Caliper Life Sciences, Inc.)).
2′-(or-3′)-O-(N-methylanthraniloyl)adenosine 5′-triphosphate (Mant-ATP, substrate) and Mant-ADP (reaction resultant product) were separated from each well after the reaction by a microchip type capillary electrophoresis apparatus 250 HTS (Caliper Life Sciences, Inc.). The reaction rate [(reaction resultant product peak height)/(reaction resultant product peak height+substrate peak height)×100(%)] was calculated from the ratio of the substrate peak height and reaction resultant product peak height obtained by fluorescence detection (excitation wavelength 355 nm, measurement wavelength 460 nm) and used as the index of GK activity.
As a control group, the reaction rate was calculated in the same manner as above except that “solution in 50% dimethyl sulfoxide (without test compound)” was used instead of “solution of test compound in 50% dimethyl sulfoxide”.
The reaction rate of the well (test compound addition group) added with the test compound was divided by the reaction rate of the control group and the obtained percentage was taken as the GK activation value (Emax) of the test compound.

| SMILES | Emax at 10 µM [%] |
| --- | --- |
| CC(=O)N1CCN(Cc2ccc(-c3ccc(C(CC4CCOCC4)c4ccc(S(=O)(=O)C5CC5)cc4)[nH]3)nc2)CC1 (stereo not drawn) [Example 62, 1-acetyl-4-{[6-(5-{1-[4-(cyclopropylsulfonyl)phenyl]-2-(tetrahydro-2H-pyran-4-yl)ethyl}-1H-pyrrol-2-yl)pyridin-3-yl]methyl}piperazine] | 153 |
| Cn1ccnc1-c1ccc(C(CC2CCCC2)c2ccc(S(C)(=O)=O)cc2)[nH]1 (stereo not drawn) [Example 4, 2-(5-{2-cyclopentyl-1-[4-(methylsulfonyl)phenyl]ethyl}-1H-pyrrol-2-yl)-1-methyl-1H-imidazole] | 227 |
| Cc1cc(C(CC2CCCC2)c2ccc(S(C)(=O)=O)cc2)[nH]c1C(N)=O (stereo not drawn) [Example 10, 5-{2-cyclopentyl-1-[4-(methylsulfonyl)phenyl]ethyl}-3-methyl-1H-pyrrole-2-carboxamide] | 193 |
| COC(OC)C(C)(O)c1cnc(-c2ccc(C(CC3CCOCC3)c3ccc(S(=O)(=O)C4CC4)cc3)[nH]2)s1 (stereo not drawn) [Example 164, 2-[2-(5-{1-[4-(cyclopropylsulfonyl)phenyl]-2-(tetrahydro-2H-pyran-4-yl)ethyl}-1H-pyrrol-2-yl)-1,3-thiazol-5-yl]-1,1-dimethoxypropan-2-ol] | 148 |
| CS(=O)(=O)c1ccc(C(CC2CCCC2)c2ccc(-c3cnccn3)[nH]2)cc1 (stereo not drawn) [Example 3, 2-(5-{2-cyclopentyl-1-[4-(methylsulfonyl)phenyl]ethyl}-1H-pyrrol-2-yl)pyrazine] | 180 |
| Cc1cc(C(CC2CCCC2)c2ccc(S(C)(=O)=O)cc2)[nH]c1-c1nccs1 (stereo not drawn) [Example 11, 2-(5-{2-cyclopentyl-1-[4-(methylsulfonyl)phenyl]ethyl}-3-methyl-1H-pyrrol-2-yl)-1,3-thiazole] | 160 |
| O=S(=O)(c1ccc(C(CC2CCOCC2)c2ccc(-c3ccc(C(O)CO)cn3)[nH]2)cc1)C1CC1 (stereo not drawn) [Example 42, 1-[6-(5-{1-[4-(cyclopropylsulfonyl)phenyl]-2-(tetrahydro-2H-pyran-4-yl)ethyl}-1H-pyrrol-2-yl)pyridin-3-yl]ethane-1,2-diol] | 156 |
| CC(O)c1cnc(-c2ccc(C(CC3CCOCC3)c3ccc(S(=O)(=O)C4CC4)cc3)[nH]2)s1 (stereo not drawn) [Example 151, 1-[2-(5-[1-[4-(cyclopropylsulfonyl)phenyl]-2-(tetrahydro-2H-pyran-4-yl)ethyl]-1H-pyrrol-2-yl)-1,3-thiazol-5-yl]ethanol] | 167 |
| CCOC(=O)c1[nH]c(C(CC2CCCC2)c2ccc(S(C)(=O)=O)cc2)cc1C (stereo not drawn) [Example 8, Ethyl 5-{2-cyclopentyl-1-[4-(methylsulfonyl)phenyl]ethyl}-3-methyl-1H-pyrrole-2-carboxylate] | 225 |
| CS(=O)(=O)c1ccc(C(CC2CCCC2)c2ncc(C(=O)C3CCC3)[nH]2)cc1 (stereo not drawn) [Example 21, Cyclobutyl(2-{2-cyclopentyl-1-[4-(methylsulfonyl)phenyl]ethyl}-1H-imidazol-5-yl)methanone] | 157 |
| Cn1cnc(-c2ccc(C(CC3CCCC3)c3ccc(S(C)(=O)=O)cc3)[nH]2)c1 (stereo not drawn) [Example 5, 4-(5-{2-cyclopentyl-1-[4-(methylsulfonyl)phenyl]ethyl}-1H-pyrrol-2-yl)-1-methyl-1H-imidazole] | 167 |
| O=S(=O)(c1ccc(C(CC2CCOCC2)c2ccc(-c3ccc(CN4CC[S+]([O-])CC4)cn3)[nH]2)cc1)C1CC1 (stereo not drawn) [Example 59, 4-{[6-(5-{1-[4-(cyclopropylsulfonyl)phenyl]-2-(tetrahydro-2H-pyran-4-yl)ethyl}-1H-pyrrol-2-yl)pyridin-3-yl]methyl}thiomorpholine 1-oxide] | 151 |
| CC(C)(O)C(O)c1ccc(-c2ccc(C(CC3CCOCC3)c3ccc(S(=O)(=O)C4CC4)cc3)[nH]2)nc1 (stereo not drawn) [Example 127, 1-[6-(5-{1-[4-(cyclopropylsulfonyl)phenyl]-2-(tetrahydro-2H-pyran-4-yl)ethyl}-1H-pyrrol-2-yl)pyridin-3-yl]-2-methylpropane-1,2-diol] | 139 |
| O=S(=O)(c1ccc(C(CC2CCOCC2)c2ccc(-c3ncc(C(O)CO)s3)[nH]2)cc1)C1CC1 (stereo not drawn) [Example 34, 1-[2-(5-{1-[4-(cyclopropylsulfonyl)phenyl]-2-(tetrahydro-2H-pyran-4-yl)ethyl}-1H-pyrrol-2-yl)-1,3-thiazol-5-yl]ethane-1,2-diol] | 178 |
| O=S(=O)(c1ccc(C(CC2CCOCC2)c2ccc(-c3nnc(CN4CC(O)C4)s3)[nH]2)cc1)C1CC1 (stereo not drawn) [Example 227, 1-{[5-(5-{1-[4-(cyclopropylsulfonyl)phenyl]-2-(tetrahydro-2H-pyran-4-yl)ethyl}-1H-pyrrol-2-yl)-1,3,4-thiadiazol-2-yl]methyl}azetidin-3-ol] | 129 |
| Cc1cc(C(CC2CCCC2)c2ccc(S(C)(=O)=O)cc2)[nH]c1C(=O)O (stereo not drawn) [Example 9, 5-{2-cyclopentyl-1-[4-(methylsulfonyl)phenyl]ethyl}-3-methyl-1H-pyrrole-2-carboxylic acid] | 173 |
| CS(=O)(=O)c1ccc(C(CC2CCCC2)c2ccc(-c3nccs3)[nH]2)cc1 (stereo not drawn) [Example 1, 2-(5-{2-cyclopentyl-1-[4-(methylsulfonyl)phenyl]ethyl}-1H-pyrrol-2-yl)-1,3-thiazole] | 195 |
| CC(C)C(=O)c1[nH]c(C(CC2CCCC2)c2ccc(S(C)(=O)=O)cc2)nc1F (stereo not drawn) [Example 14, 1-(2-{2-cyclopentyl-1-[4-(methylsulfonyl)phenyl]ethyl}-4-fluoro-1H-imidazol-5-yl)-2-methylpropan-1-one] | 185 |
| CCCC(=O)c1[nH]c(C(CC2CCCC2)c2ccc(S(C)(=O)=O)cc2)nc1F (stereo not drawn) [Example 17, 1-(2-{2-cyclopentyl-1-[4-(methylsulfonyl)phenyl]ethyl}-4-fluoro-1H-imidazol-5-yl)butan-1-one] | 188 |
| COCC(O)c1ccc(-c2ccc(C(CC3CCOCC3)c3ccc(S(=O)(=O)C4CC4)cc3)[nH]2)nc1 (stereo not drawn) [Example 177, 1-[6-(5-[1-[4-(cyclopropylsulfonyl)phenyl]-2-(tetrahydro-2H-pyran-4-yl)ethyl]-1H-pyrrol-2-yl)pyridin-3-yl]-2-methoxyethanol] | 171 |
| O=C1CC[C@H](CC(c2ccc(S(=O)(=O)C3CC3)cc2)c2nc(F)c(C(=O)C3CCC3)[nH]2)C1 (stereo partly drawn) [Example 29, (3R)-3-{2-[5-(cyclobutylcarbonyl)-4-fluoro-1H-imidazol-2-yl]-2-[4-(cyclopropylsulfonyl)phenyl]ethyl}cyclopentanone] | 218 |
| O=S(=O)(c1ccc(C(CC2CCOCC2)c2ccc(-c3ccc(C(CO)CO)cn3)[nH]2)cc1)C1CC1 (stereo not drawn) [Example 53, 2-[6-(5-{1-[4-(cyclopropylsulfonyl)phenyl]-2-(tetrahydro-2H-pyran-4-yl)ethyl}-1H-pyrrol-2-yl)pyridin-3-yl]propane-1,3-diol] | 148 |
| O=C(c1[nH]c(C(CC2CCCC2)c2ccc(S(=O)(=O)C3CC3)cc2)nc1F)C1CC1 (stereo not drawn) [Example 24, (2-{2-cyclopentyl-1-[4-(cyclopropylsulfonyl)phenyl]ethyl}-4-fluoro-1H-imidazol-5-yl)(cyclopropyl)methanone] | 190 |
| Cn1ccc(-c2ccc(C(CC3CCCC3)c3ccc(S(C)(=O)=O)cc3)[nH]2)n1 (stereo not drawn) [Example 6, 3-(5-{2-cyclopentyl-1-[4-(methylsulfonyl)phenyl]ethyl}-1H-pyrrol-2-yl)-1-methyl-1H-pyrazole] | 198 |
